Publication PMC6411751, “Use of machine learning to identify novel, behaviorally active antagonists of the insect odorant receptor co-receptor (Orco) subunit” (Scientific Reports, 2019)
Where a name gives a salt, the structure may show the parent alone. Read-outs that look alike come from different tables or passages of the source.

Columns and labels:
[1] = molecular target: T1, Agam\Or28 + Agam\Orco (Anopheles gambiae, UniProt Q7QCC7); test: Inhibition of heteromeric OR in oocytes (acetophenone activation); assay type: cell-based; details: for inhibition of odorant activation: 100 µM antagonist, 40 µM acetophenone
T1 construct: expressed in transfected cells; host or cells: Xenopus laevis oocytes
T1 sequence (Q7QCC7 1-478): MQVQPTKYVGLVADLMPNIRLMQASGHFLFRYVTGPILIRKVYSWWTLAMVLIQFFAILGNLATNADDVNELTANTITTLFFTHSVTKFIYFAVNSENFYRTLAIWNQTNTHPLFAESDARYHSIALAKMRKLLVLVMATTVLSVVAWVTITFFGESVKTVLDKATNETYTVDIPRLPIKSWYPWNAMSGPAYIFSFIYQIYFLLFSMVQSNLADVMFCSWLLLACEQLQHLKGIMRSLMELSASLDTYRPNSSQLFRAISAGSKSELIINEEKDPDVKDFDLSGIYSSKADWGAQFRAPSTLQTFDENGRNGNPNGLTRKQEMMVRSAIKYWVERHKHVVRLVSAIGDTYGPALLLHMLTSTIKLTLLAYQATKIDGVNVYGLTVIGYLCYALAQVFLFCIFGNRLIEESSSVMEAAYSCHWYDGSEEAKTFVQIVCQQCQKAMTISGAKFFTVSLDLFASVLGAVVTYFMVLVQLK
Procedure: (§1) An automated parallel electrophysiology system (OpusExpress 6000 A, Molecular Devices) was used to record Orco agonist (OLC12) or odorant induced currents under two-electrode voltage clamp. Oocytes were perfused with ND96 (in mM: 96 NaCl, 2 KCl, 1 CaCl2, 1 MgCl2, 5 HEPES, pH 7.4). DMSO was used to prepare 1 M or 100 mM stock solutions of test compounds, which were then diluted in ND96 on the day of the experiment. Compounds were applied at a flow rate of 1.0 mL/min, with extensive washing in ND96 at 4.6 mL/min between applications. Micropipettes with resistances of 0.2–2.0 MΩ were filled with 3 M KCl. The holding potential was −70 mV. Current responses were filtered (4-pole, Bessel, low pass) at 20 Hz (−3 db) and sampled at 100 Hz. OpusXpress 1.1 software (Molecular Devices) was used to capture and store current responses.

[2] = tested on: Cqui\Or21 + Cqui\Orco; test: Inhibition of heteromeric OR in oocytes (3-methylindole or OLC12 activation); assay type: cell-based, Culex quinquefasciatus; details: 100 µM antagonist; for inhibition of odorant activation: 30 nM 3-methylindole; for antagonism of OLC12 (Orco agonist) activation of heteromeric OR: 3 µM OLC12
Procedure: as §1
To measure the ability of Orco antagonists to inhibit odorant activation, oocytes expressing heteromeric ORs (Orco + ORX) were exposed to a 30 sec application of odorant followed by a 20 min wash. Oocytes were then exposed to a 90 sec application of Orco antagonist, immediately followed by a 30 sec co-application of Orco antagonist and odorant. The current response to odorant in the presence of Orco antagonist was compared to the preceding response to odorant alone and represented as a percentage. This value was then normalized to the value obtained when the assay was run in the absence of antagonist (sham).
Figure S3. Effects of Orco antagonists on heteromeric ORs. […]
heteromeric complexes of odorant specificity subunits and Orco. The Orco antagonists tested were 3-isopropyl-6-methyl-catechol (3 I6 MC), a potent compound from the input training set, and two compounds id e ntified in Fig u re 4 an d Ta b le 1 : 2-tert-butyl-6-methylphenol (B MP ) and linalyl formate (LF) . These compounds were tested for antagonist activity against odorant activation of three ORs from Anopheles gambiae (Agam\Or28 + Agam\Orco, Agam\Or39 + A ga m\Orco, Agam\Or65 + A ga m\Orco), o ne O R fro m Culex quinquefasciatus, the southern house mosquito (Cq u i\Or21 + Cqui\Orco) an d on e O R f ro m Drosophila melanogaster (Dme l\Or35a + Dmel\Orco). Each OR was activated by its cognate odorant agonist applied at an approximate EC50 concentration. […]
SEM (n = 4). […] Statistical significance of the data in each panel was assessed by one-way analysis of variance followed by Dunnett’s multiple comparison test using the pre-normalized values for each antagonist compared to the values obtained in the sham recordings (*, p < 0 .0 5; **, p < 0. 01; ***, p < 0 . 00 1 ).

[3] = molecular target: T2, Agam\Orco (Anopheles gambiae, UniProt Q7QCC7); test: cell-based; assay type: cell-based
T2 construct: expressed in transfected cells; host or cells: Xenopus laevis oocytes injected with capped cRNA (plasmid pT7TS, gift of L. Zwiebel)
T2 sequence (Q7QCC7 1-478): T1 sequence (Q7QCC7 1-478)
Procedure, shortened: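 Xenopus oocytes injected with 25 ng Agam\Orco cRNA, clamped at −70 mV in ND96 by two-electrode voltage clamp. After two 60 s pulses of 30 μM OLC12, compound applied 90 s then co-applied with OLC12 60 s; response was given as percent of prior OLC12 responses, sham-normalized.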

Row | Compound | IC50 ([1]; 100 µM acetophenone, n = 4-8, read-out: IC50 for inhibition of Agam\Or28 + Agam\Orco activation by 100 µM ACE) [µM] | inhibition of odorant activation [1] | mechanism of inhibition of odorant responses ([1]; 10 vs 100 µM acetophenone fails to shift inhibition curve) | inhibition of odorant activation [2] | antagonism of OLC12 (Orco agonist) activation of heteromeric OR [2] | more potent than LF [3] [fold] | IC50 ([3]; 10 µM OLC12, n = 4-7, read-out: IC50 for inhibition of Agam\Orco activation by 10 µM OLC12) [µM] | IC50 ([3]; 100 µM OLC12, n = 3-9, read-out: IC50 for inhibition of Agam\Orco activation by 100 µM OLC12) [µM] | mechanism of inhibition of Orco agonist (OLC12) responses ([3]; 10 vs 100 µM OLC12 shifts inhibition curve) | IC50 ([3]; Table 1, inhibition of Agam\Orco activated by 30 µM OLC12, mean ± SEM (n = 3–8), read-out: IC50) [µM] | inhibition of OLC12 activation ([3]; 100 µM compound, 30 µM OLC12) | IC50 ([3]; Agam\Orco activated by 30 µM OLC12, read-out: IC50) [µM] | IC50 ([3]; read-out: IC50) [µM]
1 | Cc1cccc(C(C)(C)C)c1O [BMP, 2-tert-butyl-6-methylphenol] | 53 ± 9 | able to inhibit odorant activation | non-competitive | able to inhibit odorant activation | able to antagonize OLC12 | 5 | 12 ± 2 | 137 ± 38 | competitive | 48 ± 5 | – | – | –
2 | Cc1ccc(C(C)C)c(O)c1O [3I6MC, 3-isopropyl-6-methyl catechol] | – | could inhibit odorant activation | – | could inhibit odorant activation | could antagonize OLC12 | – | – | – | – | – | strongly inhibited | 41 ± 7 | –
3 | C=CC(C)(CCC=C(C)C)OC=O (stereo not shown) [LF, linalyl formate] | – | able to inhibit odorant activation | – | able to inhibit odorant activation | able to antagonize OLC12 | – | – | – | – | – | – | – | 251 ± 39
